For 1 molecule, IC50 results are on record in PubChem BioAssay AID651889 (Broad Institute, 2012).

In the assay the test system is P. falciparum NF54 in erythrocytes, 3H-hypoxanthine incorporation, 72 h. Kind of assay: antimalarial activity against erythrocytic parasites – NF54 strain, plate reader, dry powder, dose response (AID 651889).

Structures are written as SMILES. The source made the active and inactive calls.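 The calls were made as follows: active = IC50 under 25 times the IC50 of the reference antimalarial drug in the parasite growth test; inactive = the rest.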

One may read the IC50 as the concentration at which inhibition is half-maximal.

Consider `C[C@@H]1CN([C@@H](C)CO)C(=O)c2cccc(NC(=O)c3ccncc3)c2O[C@H]1CN(C)Cc1ccc(Oc2ccccc2)cc1`, for which the IC50 was 580 nM (inactive).
